Activity calls are given as the source filed them. The rule behind the calls is not given here.
Columns and labels:
Candida albicans [1] = assay: Reversal of fluconazole mediated azole resistance Candida albicans 904 assessed as downregulation of CDR1 at 32 ug/ml in presence of fluconazole by RT-PCR; type: functional, organism-based; conditions: dose 32.0 µg/ml
Candida albicans [2] = assay: Reversal of fluconazole mediated azole resistance Candida albicans 904 assessed as downregulation of ERG11 at 32 ug/ml in presence of fluconazole by RT-PCR; type: functional, organism-based; conditions: dose 32.0 µg/ml
[3] = Metabolic stability in rat liver microsomes assessed as intrinsic clearance in presence of NADPH cofactor under shaking condition for 10 mins measured after 5 to 60 mins by LC-MS/MS analysis; type: ADME, Microsome; conditions: time 15-70 min
[4] = Metabolic stability in rat liver microsomes assessed as compound remaining in presence of NADPH cofactor under shaking condition for 10 mins measured after 60 mins by LC-MS/MS analysis; type: ADME, Microsome; conditions: time 70 min, read-out: Stability
CYP1A2 = biological target: T1, CYP1A2 (Homo sapiens, UniProt P05177); assay: Inhibition of CYP1A2 in human liver microsome at 10 uM using phenacetin as substrate incubated for 10 mins in presence of NADPH cofactor and fluconazole by LC-MS/MS analysis; type: ADME; conditions: liver microsomes, probe phenacetin
T1 sequence (P05177 whole entry): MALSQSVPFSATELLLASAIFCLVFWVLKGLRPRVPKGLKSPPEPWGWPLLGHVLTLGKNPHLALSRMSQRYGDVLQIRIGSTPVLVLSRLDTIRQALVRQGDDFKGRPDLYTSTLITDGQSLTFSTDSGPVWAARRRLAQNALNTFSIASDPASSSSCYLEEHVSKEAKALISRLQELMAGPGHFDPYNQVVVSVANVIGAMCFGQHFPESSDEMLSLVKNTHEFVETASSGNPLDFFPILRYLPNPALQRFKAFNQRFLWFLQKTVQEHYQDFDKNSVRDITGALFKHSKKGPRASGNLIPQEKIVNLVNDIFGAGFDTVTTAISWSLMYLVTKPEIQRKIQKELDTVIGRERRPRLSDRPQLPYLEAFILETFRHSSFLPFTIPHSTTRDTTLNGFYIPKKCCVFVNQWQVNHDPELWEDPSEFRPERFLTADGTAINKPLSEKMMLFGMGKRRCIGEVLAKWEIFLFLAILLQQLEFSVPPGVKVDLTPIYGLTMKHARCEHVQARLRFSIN

CYP2C9 = CYP2C9 (Homo sapiens, UniProt P11712); assay: Inhibition of CYP2C9 in human liver microsome at 10 uM using diclofenac as substrate incubated for 10 mins in presence of NADPH cofactor and fluconazole by LC-MS/MS analysis; type: ADME; conditions: liver microsomes, probe diclofenac
Chain of CYP2C9 (P11712 whole entry): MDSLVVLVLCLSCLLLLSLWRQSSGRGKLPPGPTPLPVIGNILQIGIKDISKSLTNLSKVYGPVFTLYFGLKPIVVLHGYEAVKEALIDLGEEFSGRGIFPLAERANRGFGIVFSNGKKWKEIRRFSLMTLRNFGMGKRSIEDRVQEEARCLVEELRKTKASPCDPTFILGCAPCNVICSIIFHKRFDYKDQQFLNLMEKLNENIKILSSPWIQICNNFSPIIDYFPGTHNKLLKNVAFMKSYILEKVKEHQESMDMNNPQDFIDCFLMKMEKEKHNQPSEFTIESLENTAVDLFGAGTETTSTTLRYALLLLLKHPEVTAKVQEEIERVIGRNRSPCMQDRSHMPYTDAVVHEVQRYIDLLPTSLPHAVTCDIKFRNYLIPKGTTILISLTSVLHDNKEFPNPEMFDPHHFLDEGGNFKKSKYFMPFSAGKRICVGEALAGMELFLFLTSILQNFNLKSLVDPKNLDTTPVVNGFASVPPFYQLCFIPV

CYP2D6 = CYP2D6 (Homo sapiens, UniProt P10635); assay: Inhibition of CYPD6 in human liver microsome at 10 uM using dextromethorphan as substrate incubated for 10 mins in presence of NADPH cofactor and fluconazole by LC-MS/MS analysis; type: ADME; conditions: liver microsomes, probe dextromethorphan
Chain of CYP2D6 (P10635 whole entry): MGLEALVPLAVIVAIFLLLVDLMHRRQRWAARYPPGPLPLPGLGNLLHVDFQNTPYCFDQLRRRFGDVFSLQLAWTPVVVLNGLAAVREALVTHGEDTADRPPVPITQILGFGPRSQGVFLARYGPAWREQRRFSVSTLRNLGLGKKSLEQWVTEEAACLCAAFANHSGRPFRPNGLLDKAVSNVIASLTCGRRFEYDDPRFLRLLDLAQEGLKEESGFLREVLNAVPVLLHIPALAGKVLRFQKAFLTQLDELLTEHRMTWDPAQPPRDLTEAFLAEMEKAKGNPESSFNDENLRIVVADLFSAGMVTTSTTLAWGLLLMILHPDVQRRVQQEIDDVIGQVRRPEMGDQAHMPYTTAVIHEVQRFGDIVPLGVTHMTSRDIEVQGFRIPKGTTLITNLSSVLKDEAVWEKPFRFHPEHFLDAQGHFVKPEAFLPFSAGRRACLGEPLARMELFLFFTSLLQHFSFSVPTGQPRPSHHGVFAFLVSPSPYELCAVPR

[5] = Half life in Sprague-Dawley rat at 10 mg/kg, iv measured upto 24 hrs by LC/MS/MS analysis; type: ADME, organism-based; conditions: in vivo
[6] = Clearance in Sprague-Dawley rat at 10 mg/kg, iv measured upto 24 hrs by LC/MS/MS analysis; type: ADME, organism-based; conditions: in vivo
[7] = MRT (0 to infinity) in Sprague-Dawley rat at 10 mg/kg, iv measured upto 24 hrs by LC/MS/MS analysis; type: ADME, organism-based; conditions: in vivo
Rattus norvegicus = assay: In vivo antifungal activity against azole resistant Candida albicans 904 infected in rat assessed as decrease in fungal invasion at 10 mg/kg, ip in presence of fluconazole administered for 5 days, qd by PAS and HE staining based microscopy; type: functional, organism-based; conditions: time 5.0 day
[8] = Binding affinity to recombinant Candida albicans Hsp90 NBD expressed in Escherichia coli by SPR assay

Compound | Activity (Candida albicans [1]) | Activity (Candida albicans [2]) | CLint [3] [mL/min/kg] | remaining at 1.167 h [4] [%] | inhibition at 10 min, 10 µM (CYP1A2) [%] | inhibition at 10 min, 10 µM (CYP2C9) [%] | inhibition at 10 min, 10 µM (CYP2D6) [%] | half-life [5] [h] | clearance [6] [mL/min/kg] | MRT inf [7] [h] | Activity (Rattus norvegicus) | Kd [8] [µM]
CCNC(=O)c1noc(-c2cc(-c3ccc(C)cc3)c(O)cc2O)c1-c1ccc(CN2CCOCC2)cc1 | Active | Active | 81.6 | 23.6 | 17.8 | 56.1 | 36.4 | 1.26 | 102 | 1.12 | Active | –
CNC(=O)c1noc(-c2cc(-c3ccc(C)cc3)c(O)cc2O)c1-c1ccc(CN2CCOCC2)cc1 | – | – | – | – | – | – | – | – | – | – | – | 0.933

Source: ChEMBL document CHEMBL5154804, “Species-Selective Targeting of Fungal Hsp90: Design, Synthesis, and Evaluation of Novel 4,5-Diarylisoxazole Derivatives for the Combination Treatment of Azole-Resistant Candidiasis” (J Med Chem, 2022)
